Experimental data from article PMC12036875, “Mitochondria-targeting natural product rhein conjugated with dichloroacetate as the dual inhibitor of glycolysis and oxidative phosphorylation to off energize cancer cells and induce ROS storm” (Theranostics, 2025).

Legend:
[1] = system: tumor-associated macrophages in 4T1 tumors; experiment: Tumor-associated macrophages detection (flow cytometry); format: in vivo, Balb/c mice; conditions: primary 4T1 tumors; for M1 macrophages (CD80+ in CD11b+ cells) / M2 macrophages (CD206+ in CD11b+ cells): 20 mg/kg oral, 24 days; for M1 macrophages (CD80+ in CD11b+ cells): vehicle 5.8%; for M2 macrophages (CD206+ in CD11b+ cells): vehicle 36.5%
Method: To further investigate the immunomodulatory effects of the Rhein-DCA conjugate, we analyzed TAMs by flow cytometry, where CD11b and CD80 antibodies were labeled for M1-phenotype macrophages (Figure 7D), CD11b and CD206 antibodies were labeled for M2-phenotype macrophages (Figure 7E).
The macrophages within the tumor microenvironment of tumor tissues were further analyzed. Tumor tissues were minced into small pieces and then digested in a solution containing 1 mg/mL of collagenase IV, 0.1 mg/mL of hyaluronidase and 0.1 mg/mL of DNAase I at 37 °C for 1.5 h. The supernatants containing single cells were collected by filtering through 200 mesh filters. Cells were obtained by centrifugation and further blocked with anti-CD16/32 (1 μg/100 μL) for 10 min in an ice bath. Thereafter, FITC anti-mouse CD11b (1 μg/100 μL) and PE anti-mouse CD80 (1 μg/100 μL) antibodies were employed to stain the cells in an ice bath for 20 min. After that, the cells were collected and fixed with 4%-paraformaldehyde at room temperature for 20 min, and then stained with APC anti-mouse CD206 antibody (0.5 μg/100 μL, in 1 × Fix/Perm buffer) at room temperature in the dark for 20 min. Finally, cells were analyzed with flow cytometry after being resuspended in 1 × Perm/Wash buffer.

4T1 tumor tissue = experiment: IHC of pPDHA1-Ser293 and IF of HMGB1 in tumor slices; format: in vivo, Balb/c mice; conditions: 20 mg/kg oral, 24 days; for pPDHA1-Ser293 protein level in tumor tissue (IHC): vs vehicle
Source text: The TAMs are the prominent components in the TEM and play a critical role in tumoral immunosuppression. Repolarization of protumor M2 phenotype into antitumor M1 phenotype is promising for malignant tumors. On the one hand, as a key metabolite fueling M2 polarization, lactate is very important in modulating the polarization state of macrophages within the tumor microenvironment. To verify that Rhein-DCA conjugate reprogrammed the metabolism of cells on solid tumors, we analyzed the expression of pPDHA1-Ser^293 protein in tumor tissues with immunohistochemical staining (IHC) (Figure 7A). […] The end product lactate of glycolysis decreased 20%, consistent with DCA's ability to reverse the Warburg effect. […] On the other hand, the ICD behavior of cancer cells also can activate TAMs into M1 polarization. Then, the release of HMGB1 was evaluated to assess the ICD effect in vivo with immunofluorescence staining (IF) (Figure 7C).
After 24 days, the mice were euthanized, and then tumors were excised to photographing and weighting. The tumors in each group were performed with TUNEL (green fluorescence) and H&E assay. In addition, immunohistochemical staining was conducted on the tumor tissue to determine the pPDHA1-Ser^293 protein level. Besides, immunofluorescence staining was used to detect the expression of HMGB1 protein in the tumor.

PDK1 = biological target: T1, PDK1 (Homo sapiens, UniProt O15530); experiment: PDK1 kinase activity assay (ADP-Glo); format: biochemical; conditions: 0.08, 0.4, 2 μM; 30 min pre-incubation; effect of Rhein-DCA at 2 μM
T1 construct: purchased Promega Biotech Co., Ltd (USA)
T1 sequence (O15530 1-556): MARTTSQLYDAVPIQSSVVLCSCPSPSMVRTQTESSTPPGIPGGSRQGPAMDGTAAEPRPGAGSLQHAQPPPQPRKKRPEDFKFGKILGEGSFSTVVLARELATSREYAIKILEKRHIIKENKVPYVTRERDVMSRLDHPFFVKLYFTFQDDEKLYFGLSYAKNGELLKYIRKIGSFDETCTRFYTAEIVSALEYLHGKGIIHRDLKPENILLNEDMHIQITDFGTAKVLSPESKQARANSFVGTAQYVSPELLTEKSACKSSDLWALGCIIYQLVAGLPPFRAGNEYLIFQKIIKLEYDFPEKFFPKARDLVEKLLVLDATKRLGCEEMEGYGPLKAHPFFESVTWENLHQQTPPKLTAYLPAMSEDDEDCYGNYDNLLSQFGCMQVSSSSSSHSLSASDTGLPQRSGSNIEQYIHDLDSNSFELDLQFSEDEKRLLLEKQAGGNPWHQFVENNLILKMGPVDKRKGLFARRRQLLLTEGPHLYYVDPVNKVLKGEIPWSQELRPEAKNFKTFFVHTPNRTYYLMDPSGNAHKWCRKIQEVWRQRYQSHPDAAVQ
Method: The elevated glycolytic metabolism in cancer cells would be blocked when the activity of the gate enzyme PDH was resumed through inhibiting overexpression of PDK1, followed by a decrease in lactate and energy production (Figure 2A). ADP-Glo^TM Kinase assay was initially employed to investigate the potential of Rhein-DCA conjugate to suppress PDK1 activity in vitro. PDK1 were separately incubated with rhein, DCA, and Rhein-DCA conjugate for 30 min for better binding, then the enzymatic substrate was added to the mixture to initiate the reaction. Finally, the luminescent signal representing PDK1 activity was recorded once the detection procedures were completed. More detailed experimental information was presented in the supporting information.
The inhibitory effect of PDK1 kinase was evaluated with the […] kinase assay. Firstly, PDK1 enzyme, PDK tide, ATP, and indicated drugs (dissolved in DMSO) were dissolved in kinase buffer. Then, 5 μL of compounds (rhein, DCA and Rhein-DCA) with diverse concentrations and 10 μL of PDK1 enzyme were dispensed to the 96-well plate and incubated for 30 min at room temperature. Next, 10 μL of PDK tide/ATP mixture was added and incubated at room temperature for 60 min. Finally, to halt the reaction and deplete the remaining ATP, 25 μL of ADP-Glo™ reagent was added to each well and incubated at room temperature for 40 min. 50 μL of kinase detection reagent was added and incubated at room temperature for another 30 min. Ultimately, the luminescence signal was recorded by multi-mode microplate reader (Integration time: 1 s). The concentrations of reagents employed in this assay were as follows: […]

For O=C(O)c1cc(O)c2c(c1)C(=O)c1cccc(O)c1C2=O [Rhein, 4,5-dihydroxyanthraquinone-2-carboxylic acid], which “M1 macrophages (CD80+ in CD11b+ cells)” value [1] is on record?
The value was 6.0%.

And the “M2 macrophages (CD206+ in CD11b+ cells)” value [1]?
The value was 16.6%.

And the “HMGB1 localisation in tumor slices (IF)” value (4T1 tumor tissue)?
The value was “almost all of HMGB1 overlapped with nucleus”.

What about the “pPDHA1-Ser293 protein level in tumor tissue (IHC)” value (“pPDHA1-Ser293 protein level” below) (4T1 tumor tissue) of the same compound?
The value was “did not significantly alter”.

What about the “PDK1 activity (luminescent signal)” value (PDK1) of the same compound?
The value was “almost negligible”.

With O=C(OCCOC(=O)C(Cl)Cl)c1cc(O)c2c(c1)C(=O)c1cccc(O)c1C2=O [Rhein-DCA] as the compound, how does the “M1 macrophages increase vs vehicle” value [1] read?
Its value is 1.8 fold.

What about the “M2 macrophages reduction vs vehicle” value [1] of the same compound?
The value was 9.4 fold.

What about the “M1 macrophages (CD80+ in CD11b+ cells)” value [1] of the same compound?
The value was 10.3%.

And the “M2 macrophages (CD206+ in CD11b+ cells)” value [1]?
The value was 3.9%.

And the “HMGB1 localisation in tumor slices (IF)” value (4T1 tumor tissue)?
Its value is “mostly appeared outside the nucleus with weak intensity”.

And the “pPDHA1-Ser293 protein level” value (4T1 tumor tissue)?
Its value is “down-expression”.

And the “PDK1 activity (luminescent signal)” value (PDK1)?
Its value is “dramatically decreased”.

How did the “M1 macrophages (CD80+ in CD11b+ cells)” value [1] turn out when O=C(O)C(Cl)Cl [DCA, Dichloroacetate] was run?
The value was 7.7%.

And the “M2 macrophages (CD206+ in CD11b+ cells)” value [1]?
Its value is 13.6%.

And the “HMGB1 localisation in tumor slices (IF)” value (4T1 tumor tissue)?
Its value is “almost all of HMGB1 overlapped with nucleus”.

What about the “pPDHA1-Ser293 protein level” value (4T1 tumor tissue) of the same compound?
The value was “obvious down-expression”.

What about the “PDK1 activity (luminescent signal)” value (PDK1) of the same compound?
The value was “did not exhibit obvious differences”.
